Reference: patent US20100249408A1, “USE OF NOVEL COMPOUND HAVING AFFINITY FOR AMYLOID, AND PROCESS FOR PRODUCTION OF THE SAME” (NIHON MEDI-PHYSICS CO., LTD., priority 2007, published 2010)
Where two headings read alike, the source gives them in different places. Each block holds one compound with its values, some of them ahead of it.

Tests used:
[1] = Partition coefficient based on the octanol extraction method (logPoctanol); settings: octanol / 10 mmol/L phosphate buffer (pH 7.4), radioactivity count
Experimental: 10 μL each of the prepared sample solution was respectively added to 2 mL of octanol, further, 2 mL of 10 mmol/L phosphate buffer (pH 7.4) was added, and stirred for 30 seconds. […] Using the obtained radioactivity count, log Poctanol was calculated in accordance with the equation (2).

[2] = Transferability into brain and clearance (Examples II-11, II-12, Comparative Example II-1); settings: rats, intravenous injection, three animals
Experimental: Using the Compounds 10 and 11, a time course change of radioactive accumulation in brain of male Wistar rats (7-week old) was measured.
The rats were sacrificed by bleeding from abdominal artery, and brains were removed and subjected to measurement of mass of brains and further subjected to measurement of radioactivity (hereinafter referred to as A in this Example) with a single channel analyzer (detector type: SP-20 manufactured by OHYO KOKEN KOGYO Co., Ltd.) 2, 5, 30 and 60 minutes after the injection. Also, radioactivity (hereinafter referred to as B in this Example) of the rest of the whole body was measured in the same manner as above. Using these measurement results, radioactive accumulation per unit weight of brain (% ID/g) at the respective time points were calculated in accordance with the following formula (4).
Three animals were used for experiment at the respective time points.

[3] = target: T1, intracerebral amyloid (aggregated Aβ1-42 injected into amygdaloid nucleus) (Homo sapiens, UniProt P05067); assay: ex vivo autoradiogram using rats of amyloid injected model (Examples II-13, II-14); parameters: species or system male Wistar rat; settings: rat with Aβ1-42 amyloid suspension in one amygdaloid nucleus, tail vein, brain removed 60 minutes after injection
T1 construct: Aβ1-42 (manufactured by Peptide Institute) was dissolved in phosphate buffer (pH 7.4); purchased Peptide Institute
Experimental: As a control, 2.5 μL of a phosphate buffered physiological saline solution (pH 7.4) was injected into an amygdaloid nucleus on the other side of the rat. The rats were examined 1 day after the injection of the amyloid suspension and the phosphate buffered physiological saline solution (pH 7.4).
(4) Brain was removed 60 minutes after the injection to prepare a brain slice of 10 μm in thickness with a microtome (type: CM3050S, manufactured by LEICA).

[4] = International Publication No. WO03/106439; cited from earlier work
[5] = [125I]-labeled compounds, normal mice; cited from earlier work
[6] = [11C]-labeled, rats; cited from earlier work

T1 sequence (P05067 672-713): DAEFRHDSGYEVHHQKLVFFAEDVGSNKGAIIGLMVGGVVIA

SMILES: Oc1ccc(-c2cn3cc([123I])ncc3n2)cc1 [Compound 10, [^123I]-2-(4′-hydroxyphenyl)-6-iodoimidazo[1,2-a]pyrazine]
- logPoctanol value [1]: 2.3
- Radioactive accumulation in brain per unit weight ([2]; after 2 min.): 0.62 % ID/g
- Radioactive accumulation in brain per unit weight ([2]; after 5 min.): 0.33 % ID/g
- Radioactive accumulation in brain per unit weight ([2]; after 30 min.): 0.08 % ID/g
- Radioactive accumulation in brain per unit weight ([2]; after 60 min.): 0.02 % ID/g
- Accumulation of radioactivity at intracerebral amyloid (ex vivo autoradiogram) [3]: a marked accumulation of radioactivity was observed in the amygdaloid nucleus on the side to which the amyloid suspension was injected

- logPoctanol value [1]: 3.0
- Radioactive accumulation in brain per unit weight ([2]; after 2 min.): 0.65 % ID/g
- Radioactive accumulation in brain per unit weight ([2]; after 5 min.): 0.43 % ID/g
- Radioactive accumulation in brain per unit weight ([2]; after 30 min.): 0.09 % ID/g
- Radioactive accumulation in brain per unit weight ([2]; after 60 min.): 0.03 % ID/g
SMILES: Oc1ccc(-c2cn3cccc([123I])c3n2)cc1 [Compound 11, [^123I]-2-(4′-hydroxyphenyl)-8-iodoimidazo[1,2-a]pyridine]
- Accumulation of radioactivity at intracerebral amyloid (ex vivo autoradiogram) [3]: a marked accumulation of radioactivity was observed in the amygdaloid nucleus on the side to which the amyloid suspension was injected

SMILES: CC(=C(C#N)C#N)c1ccc2cc(N(C)CCF)ccc2c1 [FDDNP, 2-(1-{6-[(2-fluoroethyl)(methyl)amino]-2-naphthyl}ethylidene)malononitrile]
- Result in reverse mutation test [4]: positive

SMILES: CN(C)c1ccc(-c2nc3ccc(I)cc3o2)cc1 [IBOX, 6-iodo-2-[4′-(N,N-dimethylamino)phenyl]benzoxazole]
- Clearance from normal tissues [5]: insufficient in clearance from normal tissues

SMILES: CN(C)c1ccc(-c2cn3cc(I)ccc3n2)cc1 [IMPY, 6-iodo-2-[4′-(N,N-dimethylamino)phenyl]imidazo[1,2-a]pyridine]
- Result in reverse mutation test [4]: positive

SMILES: CNc1ccc(/C=C/c2ccc(O)cc2)cc1 [SB-13, (E)-4-methylamino-4′-hydroxystilbene]
- Clearance from normal tissues [6]: it cannot be said that the clearance is sufficiently fast

SMILES: CN(C)c1ccc(-c2nc3ccc(I)cc3s2)cc1 [TZDM, 6-iodo-2-[4′-(N,N-dimethylamino)phenyl]benzothiazole]
- Clearance from normal tissues [5]: insufficient in clearance from normal tissues

SMILES: CN(C)c1ccc(/C=C/c2ccc(I)cc2)cc1 [m-I-SB, (E)-4-dimethylamino-4′-iodostilbene]
- Clearance from normal tissues [5]: insufficient in clearance from normal tissues
